US8809341B2, “2,4-pyrimidinediamine compounds and uses as anti-proliferative agents” (Rigel Pharmaceuticals, Inc., priority 2003, dated 2014)

Experiments:
A549 cells = experiment: in vitro antiproliferation assay, A549 (lung); format: cell-based; conditions: Table 5; in vitro antiproliferation, A549 (lung) cells
Summary of the method: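 IC50 values came from standard antiproliferation testing in cultured tumour cells; the A549 and H1299 lines are of lung origin.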

H1299 cells = experiment: in vitro antiproliferation assay, H1299 (lung); format: cell-based; conditions: Table 5; in vitro antiproliferation, H1299 (lung) cells
Protocol: The IC50 values of various compounds against a various different tumor cell lines were determined using standard in vitro antiproliferation assays. The tumor cell lines tested were as follows: A549 (lung); H1299 (lung), ACHN (kidney/p53 wt), CAKI (renal cell carcinoma), NCI-H460 (lung); HCT116 (colon/p53w0; HELA (cervix/p53 wt), HUH7 (liver/p53 wt), HUVEC (primary endothelial), LNCAP (prostate), HT-29 (colon); MCF-7 (breast); MCF-7 (breast/ER positive), MDA MB435S (breast); MDA MB231 (breast/ER negative), DU145 (prostate); BxPC-3 (pancreatic); SKOV-3 (ovarian); HepG2 (hepatic), NDHF primary normal human dermal fibroblast), SKMEL28 (breast/p53mut), SKMEL5 (breast/p53 wt), U20S (bone) and PC3 (prostate). […] A blank indicates the specified compound was not tested against the specified cell line.

Row | SMILES | IC50 (A549 cells) | IC50 (H1299 cells)
1 | Fc1cnc(Nc2ccc(OC(F)F)c(Cl)c2)nc1Nc1ccc2c(c1)OCCO2 [compound 526] | ≤ 20 µM | > 20 µM
2 | Fc1cnc(Nc2cc(Cl)cc(Cl)c2)nc1Nc1ccc2c(c1)OCCO2 [compound 530] | ≤ 20 µM | ≤ 20 µM
3 | COc1cc(Nc2ncc(F)c(Nc3ccc4c(c3)OCCO4)n2)cc(C(F)(F)F)c1 [compound 531] | > 20 µM | ≤ 20 µM
4 | COc1cc(Nc2ncc(F)c(Nc3ccc4c(c3)OC(F)(F)C(F)(F)O4)n2)cc(OC)c1 [compound 532] | ≤ 20 µM | ≤ 20 µM
5 | Cc1cc(Nc2ncc(F)c(Nc3ccc4c(c3)OC(F)(F)C(F)(F)O4)n2)cc(C)c1Cl [compound 533] | > 20 µM | ≤ 20 µM
6 | Fc1cnc(Nc2cc(Cl)cc(Cl)c2)nc1Nc1ccc2c(c1)OC(F)(F)C(F)(F)O2 [compound 535] | ≤ 20 µM | ≤ 20 µM
7 | COc1cc(Nc2ncc(F)c(Nc3ccc4c(c3)OC(F)(F)C(F)(F)O4)n2)cc(C(F)(F)F)c1 [compound 536] | ≤ 20 µM | ≤ 20 µM
8 | Cc1cc(C)cc(Nc2ncc(F)c(Nc3ccc4c(c3)OC(F)(F)C(F)(F)O4)n2)c1 [compound 537] | ≤ 20 µM | ≤ 20 µM
9 | Cc1cc(Nc2ncc(F)c(Nc3ccc4c(c3)OC(F)(F)C(F)(F)O4)n2)cc(C(F)(F)F)c1 [compound 538] | ≤ 20 µM | > 20 µM
10 | COc1cc(Cl)cc(Nc2ncc(F)c(Nc3ccc4c(c3)OCCO4)n2)c1 [compound 539] | ≤ 20 µM | ≤ 20 µM
11 | COc1cc(Nc2ncc(F)c(Nc3ccc4c(c3)OCO4)n2)cc(C(F)(F)F)c1 [compound 541] | ≤ 20 µM | ≤ 20 µM
12 | Cc1cc(Nc2ncc(F)c(Nc3ccc4c(c3)OCO4)n2)cc(C(F)(F)F)c1 [compound 542] | > 20 µM | > 20 µM
13 | Fc1cnc(Nc2cc(Cl)cc(Cl)c2)nc1Nc1ccc2c(c1)OCO2 [compound 543] | ≤ 20 µM | ≤ 20 µM
14 | Cc1cc(C)cc(Nc2ncc(F)c(Nc3ccc4c(c3)OCO4)n2)c1 [compound 544] | > 20 µM | > 20 µM
15 | COc1cc(Nc2ncc(F)c(N(C)c3ccc4c(c3)OCCO4)n2)cc(OC)c1 [compound 546] | ≤ 20 µM | > 20 µM
16 | Cc1cc(C)cc(Nc2ncc(F)c(N(C)c3ccc4c(c3)OCCO4)n2)c1 [compound 547] | ≤ 20 µM | ≤ 20 µM
17 | CN(c1ccc2c(c1)OCCO2)c1nc(Nc2cccc(-c3ncco3)c2)ncc1F [compound 549] | ≤ 20 µM | ≤ 20 µM
18 | CC(=O)N1CCN(c2cccc(Nc3ncc(F)c(Nc4ccc5c(c4)OCCO5)n3)c2)CC1 [compound 550] | ≤ 20 µM | ≤ 20 µM
19 | CC(=O)N1CCN(c2cccc(Nc3ncc(F)c(Nc4ccc5c(c4)OC(F)(F)C(F)(F)O5)n3)c2)CC1 [compound 552] | ≤ 20 µM | ≤ 20 µM
20 | CC(=O)N1CCN(c2ccc(Nc3ncc(F)c(Nc4ccc5c(c4)OC(F)(F)C(F)(F)O5)n3)cc2)CC1 [compound 553] | ≤ 20 µM | ≤ 20 µM
21 | CNC(=O)c1ccc(Nc2ncc(F)c(Nc3ccc4c(c3)OCCO4)n2)cc1Cl [compound 554] | ≤ 20 µM | ≤ 20 µM
22 | COC(=O)c1cc(Nc2ncc(F)c(Nc3ccc4c(c3)OCCO4)n2)cc(-c2ncco2)c1 [compound 558] | ≤ 20 µM | ≤ 20 µM
23 | Fc1cnc(Nc2cc(-c3ncco3)cc(C(F)(F)F)c2)nc1Nc1ccc2c(c1)OCCO2 [compound 559] | ≤ 20 µM | ≤ 20 µM
24 | COc1cc(Nc2ncc(F)c(Nc3ccc4c(c3)OC(F)(F)O4)n2)cc(OC)c1OC [compound 560] | ≤ 20 µM | ≤ 20 µM
25 | COc1cc(Nc2ncc(F)c(Nc3ccc4c(c3)OC(F)(F)O4)n2)cc(OC)c1 [compound 561] | ≤ 20 µM | ≤ 20 µM
26 | Cc1cc(C)cc(Nc2ncc(F)c(Nc3ccc4c(c3)OC(F)(F)O4)n2)c1 [compound 562] | ≤ 20 µM | ≤ 20 µM
27 | Oc1c(Cl)cc(Nc2ncc(F)c(Nc3ccc4c(c3)OC(F)(F)O4)n2)cc1Cl [compound 563] | ≤ 20 µM | ≤ 20 µM
28 | Fc1cnc(Nc2cc(Cl)cc(Cl)c2)nc1Nc1ccc2c(c1)OC(F)(F)O2 [compound 564] | ≤ 20 µM | ≤ 20 µM
29 | Cc1cc(Nc2ncc(F)c(Nc3ccc4c(c3)OC(F)(F)O4)n2)cc(C)c1Cl [compound 565] | > 20 µM | > 20 µM
30 | Cc1cc(Nc2ncc(F)c(Nc3ccc4c(c3)OC(F)(F)O4)n2)cc(Cl)c1O [compound 566] | ≤ 20 µM | ≤ 20 µM
